{"source": "patent US20230151025A1", "about": "“SUBSTITUTED THIAZOLOPYRIDINES, SALTS THEREOF AND THEIR USE AS HERBICIDALLY ACTIVE SUBSTANCES” (Bayer Aktiengesellschaft, priority 2020, published 2023)", "type_in_all_cases": "in vivo", "key": {"[1]": {"system": "Amaranthus retroflexus (AMARE)", "test": "Herbicidal pre-emergence action (C), 320 g/ha", "settings": "ca. 3 weeks", "in_short": "(§1)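 Visual percent damage relative to untreated controls was scored about 3 weeks after treatment, where 100% means plants died off and 0% means like controls. Compounds, as WP or EC with 0.5% additive, were applied in 600 l water/ha to the soil covering sown seeds.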"}, "Viola tricolor (VIOTR) [2]": {"system": "Viola tricolor (VIOTR)", "test": "Herbicidal pre-emergence action (C), 320 g/ha", "settings": "ca. 3 weeks", "in_short": "as §1"}, "[3]": {"system": "Abutilon theophrasti (ABUTH)", "test": "Herbicidal pre-emergence action (C), 320 g/ha", "settings": "ca. 3 weeks", "in_short": "as §1"}, "Setaria viridis (SETVI) [4]": {"system": "Setaria viridis (SETVI)", "test": "Herbicidal pre-emergence action (C), 320 g/ha", "settings": "ca. 3 weeks", "in_short": "as §1"}, "Lolium rigidum (LOLRI) [5]": {"system": "Lolium rigidum (LOLRI)", "test": "Herbicidal pre-emergence action (C), 320 g/ha", "settings": "ca. 3 weeks", "in_short": "as §1"}, "Veronica persica (VERPE) [6]": {"system": "Veronica persica (VERPE)", "test": "Herbicidal pre-emergence action (C), 320 g/ha", "settings": "ca. 3 weeks", "in_short": "as §1"}, "[7]": {"system": "Matricaria inodora (MATIN)", "test": "Herbicidal pre-emergence action (C), 320 g/ha", "settings": "ca. 3 weeks", "in_short": "as §1"}, "Stellaria media (STEME) [8]": {"system": "Stellaria media (STEME)", "test": "Herbicidal pre-emergence action (C), 320 g/ha", "settings": "visual grading after ca. 3 weeks vs untreated controls, 100% = plants have died off, 0% = as control plants", "in_short": "as §1"}, "[9]": {"system": "Echinochloa crus-galli (ECHCG)", "test": "Herbicidal pre-emergence action (C), 320 g/ha", "settings": "ca. 3 weeks", "in_short": "as §1"}, "[10]": {"system": "Alopecurus myosuroides (ALOMY)", "test": "Herbicidal pre-emergence action (C), 320 g/ha", "settings": "ca. 3 weeks", "in_short": "as §1"}, "[11]": {"system": "Polygonum convolvulus (POLCO)", "test": "Herbicidal pre-emergence action (C), 320 g/ha", "settings": "ca. 3 weeks", "in_short": "as §1"}, "Avena fatua [12]": {"system": "Avena fatua", "test": "Herbicidal pre-emergence action (C), 320 g/ha", "settings": "ca. 3 weeks", "in_short": "(§2)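 Weed and crop seeds sown in sandy loam; WP or EC formulations applied pre-emergence to the soil surface as aqueous suspension/emulsion with 0.5% additive at 600 l water/ha. Greenhouse-grown under optimum conditions; damage visually scored after ca. 3 weeks versus untreated controls (0% = as control, 100% = plants dead).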"}, "[13]": {"system": "Digitaria sanguinalis (DIGSA)", "test": "Herbicidal pre-emergence action (C), 320 g/ha", "settings": "ca. 3 weeks", "in_short": "as §2"}, "Avena fatua [14]": {"system": "Avena fatua", "test": "Herbicidal post-emergence action (D), 320 g/ha", "settings": "ca. 3 weeks", "from_the_text": "(§3) Seeds of mono- and dicotyledonous weed plants and crop plants were sown, in plastic or organic planting pots, in sandy loam, covered with soil and grown in a greenhouse under controlled growth conditions. 2 to 3 weeks after sowing, the test plants were sprayed in the single-leaf stage. The compounds according to the invention, formulated in form of wettable powders (WP) or as emulsifiable concentrates (EC), were sprayed onto the green plant parts as aqueous suspension or emulsion, with the addition of 0.5% of an additive, at an application rate of 600 l of water/ha (converted). The test plants were placed in the greenhouse for ca. 3 weeks under optimum growth conditions, and then the effect of the preparations was assessed visually in comparison with untreated controls (herbicidal effect in percent (%): 100% effect=plants have died off, 0% effect=as control plants).\n(§4) Tables D1 to D13 below show the effects of selected compounds of the general formula (I) according to table 1 on various harmful plants and an application rate corresponding to 320 g/ha obtained by the experimental procedure mentioned above."}, "[15]": {"system": "Digitaria sanguinalis (DIGSA)", "test": "Herbicidal post-emergence action (D), 320 g/ha", "settings": "ca. 3 weeks", "from_the_text": "as §3, §4"}, "[16]": {"system": "Amaranthus retroflexus (AMARE)", "test": "Herbicidal post-emergence action (D), 320 g/ha", "settings": "ca. 3 weeks", "in_short": "(§5)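 Post-emergence greenhouse spray of WP or EC formulations plus 0.5% additive at 600 l water/ha onto single-leaf-stage plants, 2–3 weeks after sowing in sandy loam. About 3 weeks later, effect was rated visually against untreated controls as % herbicidal effect, where 0% means like control and 100% means plants dead.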"}, "Viola tricolor (VIOTR) [17]": {"system": "Viola tricolor (VIOTR)", "test": "Herbicidal post-emergence action (D), 320 g/ha", "settings": "ca. 3 weeks", "in_short": "as §5"}, "[18]": {"system": "Abutilon theophrasti (ABUTH)", "test": "Herbicidal post-emergence action (D), 320 g/ha", "settings": "ca. 3 weeks", "in_short": "as §5"}, "Setaria viridis (SETVI) [19]": {"system": "Setaria viridis (SETVI)", "test": "Herbicidal post-emergence action (D), 320 g/ha", "settings": "ca. 3 weeks", "in_short": "as §5"}, "Lolium rigidum (LOLRI) [20]": {"system": "Lolium rigidum (LOLRI)", "test": "Herbicidal post-emergence action (D), 320 g/ha", "settings": "ca. 3 weeks", "in_short": "as §5"}, "Veronica persica (VERPE) [21]": {"system": "Veronica persica (VERPE)", "test": "Herbicidal post-emergence action (D), 320 g/ha", "settings": "ca. 3 weeks", "in_short": "as §5"}, "[22]": {"system": "Matricaria inodora (MATIN)", "test": "Herbicidal post-emergence action (D), 320 g/ha", "settings": "single-leaf stage, assessed visually after ca. 3 weeks vs untreated controls, 100% = plants have died off, 0% = as control plants", "in_short": "as §5"}, "Stellaria media (STEME) [23]": {"system": "Stellaria media (STEME)", "test": "Herbicidal post-emergence action (D), 320 g/ha", "settings": "ca. 3 weeks", "in_short": "as §5"}, "[24]": {"system": "Echinochloa crus-galli (ECHCG)", "test": "Herbicidal post-emergence action (D), 320 g/ha", "settings": "ca. 3 weeks", "in_short": "as §5"}, "[25]": {"system": "Alopecurus myosuroides (ALOMY)", "test": "Herbicidal post-emergence action (D), 320 g/ha", "settings": "ca. 3 weeks", "in_short": "as §5"}, "[26]": {"system": "Polygonum convolvulus (POLCO)", "test": "Herbicidal post-emergence action (D), 320 g/ha", "settings": "ca. 3 weeks", "in_short": "as §5"}}, "data": [{"smiles": "Cc1cc2scnc2nc1-c1ccccc1F", "note": "[Example I-002]", "values": [{"measurement": "herbicidal effect AMARE", "setting": "[1]", "result": 90, "unit": "%"}, {"measurement": "herbicidal effect VIOTR", "setting": "Viola tricolor (VIOTR) [2]", "result": 80, "unit": "%"}, {"measurement": "herbicidal effect ABUTH", "setting": "[3]", "result": 90, "unit": "%"}, {"measurement": "herbicidal effect SETVI", "setting": "Setaria viridis (SETVI) [4]", "result": 100, "unit": "%"}, {"measurement": "herbicidal effect LOLRI", "setting": "Lolium rigidum (LOLRI) [5]", "result": 100, "unit": "%"}, {"measurement": "herbicidal effect VERPE", "setting": "Veronica persica (VERPE) [6]", "result": 90, "unit": "%"}, {"measurement": "herbicidal effect MATIN", "setting": "[7]", "result": 90, "unit": "%"}, {"measurement": "STEME, herbicidal effect in percent (%)", "setting": "Stellaria media (STEME) [8]", "result": 90, "unit": "%"}, {"measurement": "herbicidal effect ECHCG", "setting": "[9]", "result": 100, "unit": "%"}, {"measurement": "herbicidal effect ALOMY", "setting": "[10]", "result": 100, "unit": "%"}, {"measurement": "herbicidal effect POLCO", "setting": "[11]", "result": 90, "unit": "%"}, {"measurement": "herbicidal effect AVEFA", "setting": "Avena fatua [12]", "result": 100, "unit": "%"}, {"measurement": "herbicidal effect DIGSA", "setting": "[13]", "result": 100, "unit": "%"}, {"measurement": "herbicidal effect AVEFA", "setting": "Avena fatua [14]", "result": 80, "unit": "%"}, {"measurement": "herbicidal effect DIGSA", "setting": "[15]", "result": 90, "unit": "%"}, {"measurement": "herbicidal effect AMARE", "setting": "[16]", "result": 90, "unit": "%"}, {"measurement": "herbicidal effect VIOTR", "setting": "Viola tricolor (VIOTR) [17]", "result": 80, "unit": "%"}, {"measurement": "herbicidal effect ABUTH", "setting": "[18]", "result": 80, "unit": "%"}, {"measurement": "herbicidal effect SETVI", "setting": "Setaria viridis (SETVI) [19]", "result": 90, "unit": "%"}, {"measurement": "herbicidal effect LOLRI", "setting": "Lolium rigidum (LOLRI) [20]", "result": 80, "unit": "%"}, {"measurement": "herbicidal effect VERPE", "setting": "Veronica persica (VERPE) [21]", "result": 80, "unit": "%"}, {"measurement": "MATIN, herbicidal effect in percent (%)", "setting": "[22]", "result": 80, "unit": "%"}, {"measurement": "herbicidal effect STEME", "setting": "Stellaria media (STEME) [23]", "result": 90, "unit": "%"}, {"measurement": "herbicidal effect ECHCG", "setting": "[24]", "result": 100, "unit": "%"}, {"measurement": "herbicidal effect ALOMY", "setting": "[25]", "result": 90, "unit": "%"}, {"measurement": "herbicidal effect POLCO", "setting": "[26]", "result": 90, "unit": "%"}]}]}
